Assay results from PubChem BioAssay (NCI).
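48-hour exposure; five concentrations; linearly interpolated endpoints. GI50 is the concentration that inhibits growth by half. TGI marks complete inhibition of growth.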

Experiments:
Assay in all cases: NCI tumour cell line growth inhibition, 48 h
RXF 393 renal = test system: RXF 393 renal
HT29 colon = test system: HT29 colon
MOLT-4 leukemia = test system: MOLT-4 leukemia
OVCAR-3 ovarian = test system: OVCAR-3 ovarian
TK-10 renal = test system: TK-10 renal
SF-268 CNS = test system: SF-268 CNS
HCC-2998 colon = test system: HCC-2998 colon
U251 CNS = test system: U251 CNS
HL-60(TB) leukemia = test system: HL-60(TB) leukemia
SF-539 CNS = test system: SF-539 CNS
CAKI-1 renal = test system: CAKI-1 renal
SF-295 CNS = test system: SF-295 CNS
IGROV1 ovarian = test system: IGROV1 ovarian
HCT-15 colon = test system: HCT-15 colon
KM12 colon = test system: KM12 colon
NCI/ADR-RES ovarian = test system: NCI/ADR-RES ovarian
HS 578T breast = test system: HS 578T breast
MCF7 breast = test system: MCF7 breast

SMILES	TGI (RXF 393 renal)	TGI (HT29 colon)	TGI (MOLT-4 leukemia)	TGI (OVCAR-3 ovarian)	TGI (TK-10 renal)	TGI (SF-268 CNS)	TGI (HCC-2998 colon)	TGI (U251 CNS)	TGI (HL-60(TB) leukemia)	TGI (SF-539 CNS)	TGI (CAKI-1 renal)	TGI (SF-295 CNS)	TGI (IGROV1 ovarian)	TGI (HCT-15 colon)	TGI (KM12 colon)	TGI (NCI/ADR-RES ovarian)	TGI (HS 578T breast)	TGI (MCF7 breast)	GI50 (HCT-15 colon)
COC(=O)C(Cc1nc2ccc(Cl)cc2[nH]c1=O)C(=O)C(=O)Nc1cc(C)ccc1C (stereo unspecified)	> 100 µM	> 100 µM	> 100 µM	> 100 µM	> 100 µM	> 100 µM	> 100 µM	> 100 µM	> 100 µM	> 100 µM	> 100 µM	> 100 µM	> 100 µM	> 100 µM	> 100 µM				
CCc1cccc(C(C)C)c1NC(=O)/C(=N\NC(N)=O)C(C(=O)OC)c1cnc2ccccc2n1 (stereo unspecified)	> 100 µM	> 100 µM	> 100 µM	60.3 µM	> 100 µM	> 100 µM	> 100 µM	> 100 µM	79.6 µM	> 100 µM	> 100 µM	> 100 µM	> 100 µM	> 100 µM	> 100 µM				
CC1OC(n2cc(F)c(=O)[nH]c2=O)CCC1=O (stereo unspecified)	> 100 µM	> 100 µM	> 100 µM		> 100 µM	> 100 µM	> 100 µM	> 100 µM	> 100 µM	88.7 µM	> 100 µM	> 100 µM	> 100 µM	> 100 µM	> 100 µM				
CC1(O)CC2C(CC1SC1CC3C(CC1(C)O)C3(C)C)C2(C)C (stereo unspecified)		> 100 µM	> 100 µM	> 100 µM	> 100 µM	> 100 µM	> 100 µM	> 100 µM	58.5 µM	> 100 µM		> 100 µM	> 100 µM	> 100 µM	> 100 µM				
CN(C)CC1(C)CC/C(=C\c2ccc(Cl)cc2)C1=O (stereo unspecified)	82.1 µM	> 100 µM	55.8 µM	> 100 µM	> 100 µM	> 100 µM	> 100 µM	> 100 µM	> 100 µM	> 100 µM	> 100 µM	> 100 µM	> 100 µM	> 100 µM	80.3 µM				
CC(=O)OCC12CC(CC1OC(C)=O)c1ccccc12 (stereo unspecified)		> 100 µM	> 100 µM	> 100 µM	> 100 µM	> 100 µM	> 100 µM	> 100 µM	> 100 µM		> 100 µM	> 100 µM	> 100 µM	> 100 µM					
COc1ccc(OC2(c3cc(OC)ccc3OC)OC(=O)c3ccccc32)cc1 (stereo unspecified)	> 100 µM	> 100 µM	> 100 µM	> 100 µM	> 100 µM	> 100 µM	> 100 µM	> 100 µM	> 100 µM	> 100 µM	> 100 µM	> 100 µM	> 100 µM	> 100 µM	> 100 µM				
N#C/C(c1nc2ccccc2[nH]1)=c1\s/c(=C/c2ccccc2)c(=O)n1-c1ccccc1			> 100 µM	> 100 µM	> 100 µM	> 100 µM	> 100 µM	> 100 µM	> 100 µM	> 100 µM	> 100 µM		> 100 µM	> 100 µM	> 100 µM				
CSc1nc(-c2ccccc2)[nH]c(=O)n1	> 100 µM	> 100 µM	> 100 µM	> 100 µM	> 100 µM	> 100 µM	> 100 µM	> 100 µM	> 100 µM	> 100 µM	> 100 µM	> 100 µM	> 100 µM	> 100 µM	> 100 µM	> 100 µM	> 100 µM	> 100 µM	
CC(=O)NC(CCCNC(=O)N(C)N=O)C(=O)NCc1ccccc1 (stereo unspecified)	> 100 µM	> 100 µM	> 100 µM	> 100 µM	> 100 µM	> 100 µM	> 100 µM	> 100 µM		> 100 µM	> 100 µM	> 100 µM	> 100 µM	> 100 µM	> 100 µM				
CCOc1ccc(N(CC(=O)N2CC(=O)Nc3cc(C)c(C)cc32)C(C)=O)cc1	> 100 µM	> 100 µM	> 100 µM	> 100 µM	> 100 µM	> 100 µM	> 100 µM	> 100 µM	> 100 µM	> 100 µM	> 100 µM	> 100 µM		> 100 µM	> 100 µM				
O=C(O)c1cnc2c(ccc3[nH]cccc32)c1=O	> 100 µM	> 100 µM	> 100 µM	> 100 µM	> 100 µM	> 100 µM	> 100 µM	> 100 µM	> 100 µM	> 100 µM			> 100 µM	> 100 µM	> 100 µM				
O=C1CCC2(c3ccc(Cl)cc3)Nc3ccccc3N12 (stereo unspecified)	> 100 µM	> 100 µM	> 100 µM		> 100 µM	> 100 µM	> 100 µM	> 100 µM	> 100 µM	> 100 µM		> 100 µM	> 100 µM	> 100 µM	> 100 µM				
Cc1ccc(C(=O)NC2CCCCC2)cc1N=NN(C)C		> 100 µM		> 100 µM	> 100 µM	> 100 µM	> 100 µM	> 100 µM		> 100 µM	> 100 µM	> 100 µM	> 100 µM	> 100 µM	> 100 µM				
CC(=O)C1C(=O)C(=O)N(c2ccc([N+](=O)[O-])cc2[N+](=O)[O-])C1=O (stereo unspecified)	> 100 µM	> 100 µM	> 100 µM	> 100 µM	> 100 µM	> 100 µM	> 100 µM	> 100 µM	> 100 µM	> 100 µM	> 100 µM	> 100 µM	> 100 µM	> 100 µM	> 100 µM	> 100 µM	> 100 µM	> 100 µM	
COc1ccc2c(=O)c3ccoc3[nH]c2c1	> 100 µM	> 100 µM	> 100 µM		> 100 µM	> 100 µM	> 100 µM	> 100 µM	> 100 µM	> 100 µM	> 100 µM	> 100 µM	> 100 µM	> 100 µM	> 100 µM	> 100 µM	> 100 µM	> 100 µM	

SMILES	TGI (RXF 393 renal)	TGI (HT29 colon)	TGI (MOLT-4 leukemia)	TGI (OVCAR-3 ovarian)	TGI (TK-10 renal)	TGI (SF-268 CNS)	TGI (HCC-2998 colon)	TGI (U251 CNS)	TGI (HL-60(TB) leukemia)	TGI (SF-539 CNS)	TGI (CAKI-1 renal)	TGI (SF-295 CNS)	TGI (IGROV1 ovarian)	TGI (HCT-15 colon)	TGI (KM12 colon)	TGI (NCI/ADR-RES ovarian)	TGI (HS 578T breast)	TGI (MCF7 breast)	GI50 (HCT-15 colon)
COC(=O)/C=C1\CCC2[C@@H](C(=O)CC3[C@]2(C)CCC[C@@]3(C)C(=O)OC)C1C (stereo partly specified)		61 µM	25.9 µM	89 µM	53.4 µM	52.1 µM	97.9 µM	> 100 µM	35.1 µM	61.1 µM	> 100 µM	71.8 µM	57 µM	> 100 µM	42.6 µM				
Cc1cc(N(CCC#N)CCC#N)ccc1/C=C1N=C(/C=C\c2ccccc2)N(NC(=O)CC(=O)Nc2ccccc2Cl)C\1=O		> 100 µM	> 100 µM	> 100 µM	> 100 µM	> 100 µM		> 100 µM	> 100 µM	> 100 µM	> 100 µM	> 100 µM	> 100 µM	> 100 µM	> 100 µM				
Cc1ccc(NC(=O)C2C3C=CC(O3)C2C(=O)O)cc1 (stereo unspecified)	80.1 µM	39.8 µM	> 100 µM	> 100 µM	> 100 µM	> 100 µM	> 100 µM	> 100 µM	> 100 µM	> 100 µM		> 100 µM	> 100 µM	> 100 µM					
CCN(CC)CCCNc1ccc([N+](=O)[O-])c2nc3ccccc3c(N)c12	1.52 µM	1.81 µM	4.29 µM	8.75 µM	> 10 µM	> 10 µM			2.92 µM	1.88 µM	> 10 µM	1.87 µM	2.6 µM	2.55 µM	1.7 µM	2.65 µM	1.91 µM	2.24 µM	
CCOC(=O)C(C)NC(=O)NC12CC3CC(CC(F)(C3)C1)C2 (stereo unspecified)	86.6 µM	> 100 µM	> 100 µM	> 100 µM	> 100 µM		> 100 µM	> 100 µM	> 100 µM	> 100 µM			> 100 µM		> 100 µM				
O=C1C(Cl)C(c2ccccc2Cl)N1n1cnc2ccccc2c1=O (stereo unspecified)	67.3 µM	> 100 µM	> 100 µM	> 100 µM	> 100 µM	> 100 µM	> 100 µM	> 100 µM	57.4 µM		> 100 µM	> 100 µM	> 100 µM	> 100 µM	> 100 µM				
Cc1cc(Cl)ccc1NC(=O)/C(=N\NC(C)(C)C)C(C#N)c1nc(-c2ccc([N+](=O)[O-])cc2)cs1 (stereo unspecified)		> 100 µM	> 100 µM	> 100 µM	> 100 µM	> 100 µM	> 100 µM	> 100 µM	> 100 µM	> 100 µM	> 100 µM	> 100 µM	> 100 µM	> 100 µM	> 100 µM				
CC(C)N(C(=O)C12C3C4C5C3C1(C(=O)O)C5C42)C(C)C (stereo unspecified)		> 100 µM	> 100 µM	> 100 µM	> 100 µM	> 100 µM	> 100 µM	> 100 µM	> 100 µM	> 100 µM	> 100 µM	> 100 µM	> 100 µM	> 100 µM	> 100 µM				
CCOC(=O)NC(=O)c1cn(CCSCCOC(=O)NCCCCCCNC(=O)OCCSCCn2cc(C(=O)NC(=O)OCC)c(=O)n(C)c2=O)c(=O)n(C)c1=O	> 100 µM	> 100 µM	> 100 µM	> 100 µM	> 100 µM	> 100 µM	> 100 µM	40.3 µM	43 µM	80.1 µM		> 100 µM		> 100 µM					
CC(=O)NC(CCCCNCc1ccccc1)C(=O)NCc1ccccc1 (stereo unspecified)	> 100 µM	> 100 µM	> 100 µM	> 100 µM	> 100 µM	> 100 µM	> 100 µM	> 100 µM		> 100 µM	> 100 µM	> 100 µM	> 100 µM	> 100 µM	> 100 µM				
O=C1/C(=C/c2ccccc2Cl)COc2ccc(Br)cc21	> 100 µM	> 100 µM	> 100 µM	> 100 µM	> 100 µM	> 100 µM	> 100 µM	> 100 µM	> 100 µM	> 100 µM		> 100 µM	> 100 µM		> 100 µM				
NC(=O)N/N=C(\CC1OC(=O)c2ccccc21)c1ccc([N+](=O)[O-])cc1 (stereo unspecified)	28.9 µM	> 100 µM	> 100 µM	> 100 µM	> 100 µM		32.7 µM	39.5 µM	> 100 µM	55 µM	71.3 µM	> 100 µM	49.8 µM	59.7 µM	95.9 µM				
O=S(Cc1ccccc1)c1ccccc1Cn1cccc1 (stereo unspecified)	> 100 µM	> 100 µM		> 100 µM	> 100 µM	> 100 µM	> 100 µM	> 100 µM	> 100 µM	> 100 µM	> 100 µM	> 100 µM	> 100 µM	> 100 µM	> 100 µM	> 100 µM	> 100 µM	> 100 µM	
COc1cc2c(c(OC)c1OC)-c1ccc(SC)c(=O)cc1[C@@H](NC(=O)c1cccc([N+](=O)[O-])c1)CC2		0.0708 µM	> 100 µM	0.0404 µM	55.3 µM	16.5 µM	0.0497 µM	0.0577 µM		0.0377 µM			35.6 µM	> 100 µM	> 100 µM				0.027 µM
O=S1Nc2cccc(C(F)(F)F)c2S1 (stereo unspecified)	73.7 µM	> 100 µM	55.4 µM	> 100 µM	> 100 µM	> 100 µM	64.4 µM	> 100 µM	31.8 µM	> 100 µM	> 100 µM	> 100 µM	> 100 µM	43 µM	59.9 µM				
